Key:
Cyclooxygenase-1 (COX-1) = molecular target: T1, Cyclooxygenase-1 (COX-1) (Ovis aries, UniProt P05979); assay: COX Inhibitor Screening Assay Kit (Cayman), PGF2α by ELISA, COX-1; format: biochemical; conditions: compound at 50 μm; relative to PGF2α produced without compound (100%)
T1 construct: purchased Cayman Chemical Company 560101
T1 sequence (P05979 25-600): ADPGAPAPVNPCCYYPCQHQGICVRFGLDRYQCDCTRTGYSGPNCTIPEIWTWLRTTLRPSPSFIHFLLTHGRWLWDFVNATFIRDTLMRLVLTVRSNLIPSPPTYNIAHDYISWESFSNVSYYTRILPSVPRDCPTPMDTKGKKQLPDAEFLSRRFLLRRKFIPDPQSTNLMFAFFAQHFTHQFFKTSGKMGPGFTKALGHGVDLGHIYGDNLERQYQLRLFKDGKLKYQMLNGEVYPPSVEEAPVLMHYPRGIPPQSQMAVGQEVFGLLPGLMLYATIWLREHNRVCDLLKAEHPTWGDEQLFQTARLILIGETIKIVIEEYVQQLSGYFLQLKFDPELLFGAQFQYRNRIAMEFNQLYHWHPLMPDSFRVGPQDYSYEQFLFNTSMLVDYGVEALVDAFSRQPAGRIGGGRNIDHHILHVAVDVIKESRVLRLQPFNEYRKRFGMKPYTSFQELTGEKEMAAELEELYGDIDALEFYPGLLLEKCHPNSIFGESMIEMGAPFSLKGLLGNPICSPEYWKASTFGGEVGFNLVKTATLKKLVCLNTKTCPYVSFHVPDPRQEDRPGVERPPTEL
Method: (§1) Inhibitory activity against COX-1 and COX-2 of the compounds produced in the Examples was measured by using COX Inhibitor Screening Assay Kit (Catalog Nos. 560101 and 560121) purchased from Cayman Chemical Company.
(§2) Before starting the measurement, reaction buffer, heme, arachidonic acid, SnCl2, EIA buffer, washing buffer, prostaglandin (PG) screening EIA standard, PG screening acetylcholine esterase (AchE), tracer (chromogenic enzyme HRP conjugate), and PC screening EIA antiserum were prepared ready for use.
(§3) The reaction mixture containing the compound of the Examples (50 μM) and COX-1 or COX-2 was allowed to stand at 37° C. or 10 minutes, and after adding 10 μl of arachidonic acid, the solution was again allowed to stand at 37° C. for 2 minutes. After the reaction, the reaction was terminated by adding 50 μl of 1N-hydrochloric acid, and 100 μl solution of SnCl2 was added, and the reaction mixture was allowed to stand at room temperature for 5 minutes.
(§4) 50 μl of antiserum (rabbit anti-PGF2α antibody) was placed in the wells of 96 well plate that had been coated with mouse anti-rabbit IgG and 50 μl of the 2000-fold diluted PGF2α-containing liquid described above and 50 μl of AchE tracer were added to the well in this order, and the mixture was allowed to stand at room temperature for 18 hours. The wells were washed 5 times with the washing buffer to remove an excessive AchE tracer, and 200 μl of Ellman reagent was added. After leaving the plate in a dark room for 60 minutes, absorbance was measured at 405 nm.
(§5) A calibration curve was obtained by using the PG screening EIA standard, and the amount of PGF2α produced was determined from the absorption. Inhibitory rate at 50 μM of the compound of the Examples against COX-1 or COX-2 was calculated.
(§6) It is to be noted that the inhibitory rate was calculated in relation to the amount of the PGF2α produced by the reaction liquid free from the compounds of the Examples, which was taken 100%.

Cyclooxygenase-2 (COX-2) = molecular target: T2, Cyclooxygenase-2 (COX-2) (Homo sapiens, UniProt P35354); assay: COX Inhibitor Screening Assay Kit (Cayman), PGF2α by ELISA, COX-2; format: biochemical; conditions: compound at 50 μm; relative to PGF2α produced without compound (100%)
T2 construct: purchased Cayman Chemical Company 560121
T2 sequence (P35354 18-604): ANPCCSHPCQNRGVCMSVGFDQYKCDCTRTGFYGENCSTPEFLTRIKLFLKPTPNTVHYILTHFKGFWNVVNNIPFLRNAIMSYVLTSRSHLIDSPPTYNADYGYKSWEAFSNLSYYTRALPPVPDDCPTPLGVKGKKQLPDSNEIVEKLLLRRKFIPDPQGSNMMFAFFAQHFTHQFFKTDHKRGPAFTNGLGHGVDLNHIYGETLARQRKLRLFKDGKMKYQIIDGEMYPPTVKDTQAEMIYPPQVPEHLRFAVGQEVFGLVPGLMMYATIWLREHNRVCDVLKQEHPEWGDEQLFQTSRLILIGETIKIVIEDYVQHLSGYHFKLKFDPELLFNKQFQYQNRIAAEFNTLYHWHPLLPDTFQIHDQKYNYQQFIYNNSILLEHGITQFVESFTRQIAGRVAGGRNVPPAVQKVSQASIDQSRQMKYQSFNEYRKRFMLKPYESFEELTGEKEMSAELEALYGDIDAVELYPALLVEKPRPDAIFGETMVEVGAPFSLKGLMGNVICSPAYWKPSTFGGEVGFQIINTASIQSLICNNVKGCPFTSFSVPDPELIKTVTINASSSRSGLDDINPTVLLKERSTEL
Method: as §1, §2, §3, §4, §5, §6

[1] = test system: collagen-induced platelet coagulation; assay: Inhibitory effect on collagen-induced platelet coagulation in platelet rich plasma; format: cell-based; conditions: human platelet rich plasma, 37° C., coagulation induced with collagen; read-out: Inhibition of collagen-induced platelet coagulation, IC50
Method: Human blood was collected by using 1/10 volume of 3.13% sodium citrate as an anticoagulant, and the blood was centrifuged at 180 g for 10 minutes to separate platelet rich plasma (PRP), which was the upper layer. After collecting the upper layer PRP, the remaining lower layer was centrifuged at 1600 g for 10 minutes, and platelet poor plasma (PPP) in the upper layer was collected. 1 μl solution of the compound of the Examples was added to 200 μl of the PRP, and after allowing the sample to stand at 37° C. for 2 minutes, 2 μl of collagen was added in order to induce platelet coagulation. Platelet coagulation rate was measured with PAM-12C (SSR Engineering).

COc1ccc(-n2nc(C(=O)NC(C)(C)C)cc2-c2cc(CO)ccn2)cn1 [Example 4, N-tert-Butyl-5-(4-hydroxymethyl-2-pyridyl)-1-(6-methoxy-3-pyridyl)-1H-pyrazole-3-carboxamide]
Inhibitory effect against COX-1 at 50 μm (% inhibition) (Cyclooxygenase-1 (COX-1)): −1.5 % inhibition | Inhibitory effect against COX-2 at 50 μm (% inhibition) (Cyclooxygenase-2 (COX-2)): −1.9 % inhibition | IC50 [1]: 120 nM

Cc1ccc(-n2nc(C(=O)NC(C)(C)C)cc2-c2ccccn2)cn1 [Example 8, N-tert-Butyl-1-(6-methyl-3-pyridyl)-5-(2-pyridyl)-1H-pyrazole-3-carboxamide]
Inhibitory effect against COX-1 at 50 μm (% inhibition) (Cyclooxygenase-1 (COX-1)): −3.3 % inhibition | Inhibitory effect against COX-2 at 50 μm (% inhibition) (Cyclooxygenase-2 (COX-2)): 3.9 % inhibition | IC50 [1]: 18 nM

COc1ccc(-n2nc(C(=O)NC(C)(C)C)cc2-c2cnccn2)cn1 [Example 13, N-tert-Butyl-1-(6-methoxy-3-pyridyl)-5-(2-pyrazinyl)-1H-pyrazole-3-carboxamide]
Inhibitory effect against COX-1 at 50 μm (% inhibition) (Cyclooxygenase-1 (COX-1)): 13.9 % inhibition | Inhibitory effect against COX-2 at 50 μm (% inhibition) (Cyclooxygenase-2 (COX-2)): 9.2 % inhibition | IC50 [1]: 18 nM

COc1cnc(-n2nc(C(=O)NC(C)(C)C)cc2-c2ccccn2)cn1 [Example 15, N-tert-Butyl-1-(5-methoxy-2-pyrazinyl)-5-(2-pyridyl)-1H-pyrazole-3-carboxamide]
Inhibitory effect against COX-1 at 50 μm (% inhibition) (Cyclooxygenase-1 (COX-1)): 39.5 % inhibition | Inhibitory effect against COX-2 at 50 μm (% inhibition) (Cyclooxygenase-2 (COX-2)): 6.9 % inhibition | IC50 [1]: 29 nM

CC(C)(C)NC(=O)c1cc(-c2ccc(O)cn2)n(-c2cccnc2)n1 [Example 22, N-tert-Butyl-5-(5-hydroxy-2-pyridyl)-1-(3-pyridyl)-1H-pyrazole-3-carboxamide]
Inhibitory effect against COX-1 at 50 μm (% inhibition) (Cyclooxygenase-1 (COX-1)): 0.8 % inhibition | Inhibitory effect against COX-2 at 50 μm (% inhibition) (Cyclooxygenase-2 (COX-2)): 4.2 % inhibition | IC50 [1]: 210 nM

COc1ccc(-c2cc(C(=O)NC(C)(C)C)nn2-c2cccnc2)nc1 [Example 25, N-tert-Butyl-5-(5-methoxy-2-pyridyl)-1-(3-pyridyl)-1H-pyrazole-3-carboxamide]
Inhibitory effect against COX-1 at 50 μm (% inhibition) (Cyclooxygenase-1 (COX-1)): 4.7 % inhibition | Inhibitory effect against COX-2 at 50 μm (% inhibition) (Cyclooxygenase-2 (COX-2)): 8.2 % inhibition | IC50 [1]: 18 nM

CC(C)(C)NC(=O)c1cc(-c2ccc(N)cn2)n(-c2cccnc2)n1 [Example 71]
Inhibitory effect against COX-1 at 50 μm (% inhibition) (Cyclooxygenase-1 (COX-1)): 7.9 % inhibition | IC50 [1]: 23.1 nM

CC(C)(C)NC(=O)c1cc(-c2ccc(CN)cn2)n(-c2ccccc2)n1 [Example 74, N-tert-Butyl-5-(5-aminomethyl-2-pyridyl)-1-phenyl-1H-pyrazole-3-carboxamide]
Inhibitory effect against COX-1 at 50 μm (% inhibition) (Cyclooxygenase-1 (COX-1)): 38.8 % inhibition | IC50 [1]: 170 nM

CC(C)(C)NC(=O)c1cc(-c2ccc(F)cn2)n(-c2cccnc2)n1 [Example 85, N-tert-Butyl-5-(5-fluoro-2-pyridyl)-1-(3-pyridyl)-1H-pyrazole-3-carboxamide]
IC50 [1]: 54 nM

CC(C)(C)NC(=O)c1cc(-c2cnc(N)cn2)n(-c2cccnc2)n1 [Example 95, N-tert-Butyl-5-(5-amino-2-pyrazinyl)-1-(3-pyridyl)-1H-pyrazole-3-carboxamide]
Inhibitory effect against COX-1 at 50 μm (% inhibition) (Cyclooxygenase-1 (COX-1)): −9.1 % inhibition | IC50 [1]: 160 nM

CC(C)(CF)NC(=O)c1cc(-c2ccc(N)cn2)n(-c2cccnc2)n1 [Example 98, N-(2-Fluoro-1,1-dimethylethyl)-5-(5-amino-2-pyridyl)-1(3-pyridyl)-1H-pyrazole-3-carboxamide]
Inhibitory effect against COX-1 at 50 μm (% inhibition) (Cyclooxygenase-1 (COX-1)): −20.4 % inhibition | IC50 [1]: 43 nM

CC(C)(CF)NC(=O)c1cc(-c2cnc(N)cn2)n(-c2cccnc2)n1 [Example 113, N-(2-Fluoro-1,1-dimethylethyl)-5-(5-amino-2-pyrazinyl)-1-(3-pyridyl)-1H-pyrazole-3-carboxamide]
Inhibitory effect against COX-1 at 50 μm (% inhibition) (Cyclooxygenase-1 (COX-1)): −2.8 % inhibition | IC50 [1]: 150 nM

COc1ccc(-n2nc(C(=O)N(C)C)cc2-c2ccn(C)c2)cn1 [Example 116, N,N-Dimethyl-1-(6-methoxy-3-pyridyl)-5-(1-methyl-1H-pyrrol-3-yl)-1H-pyrazole-3-carboxamide]
IC50 [1]: 20 nM

Cc1ccc(-n2nc(C(=O)NC(C)(C)C)cc2-c2cn(C)cn2)cn1 [Example 122, N-tert-Butyl-5-(1-methyl-1H-imidazol-4-yl)-1-(6-methyl-3-pyridyl)-1H-pyrazole-3-carboxamide]
IC50 [1]: 100 nM

C#Cc1ccc(-c2cc(C(=O)NC(C)(C)CF)nn2-c2cccnc2)nc1 [Example 132, 5-(5-Ethynyl-2-pyridyl)-N-(2-fluoro-1,1-dimethylethyl)-1-(3-pyridyl)-1H-pyrazole-3-carboxamide]
IC50 [1]: 32 nM

CC(C)(C)NC(=O)c1cc(-c2ccc(CNS(C)(=O)=O)cn2)n(-c2cccnc2)n1 [Example 137, N-tert-Butyl-5-[5-(methanesulfonylamino)methyl-2-pyridyl]-1-(3-pyridyl)-1H-pyrazole-3-carboxamide]
Inhibitory effect against COX-1 at 50 μm (% inhibition) (Cyclooxygenase-1 (COX-1)): −5.1 % inhibition | IC50 [1]: 230 nM

CC(=O)NCc1ccc(-c2cc(C(=O)NC(C)(C)C)nn2-c2cccnc2)nc1 [Example 138, N-tert-Butyl-5-[5-(acetylamino)methyl-2-pyridyl]-1-(3-pyridyl)-1H-pyrazole-3-carboxamide]
Inhibitory effect against COX-1 at 50 μm (% inhibition) (Cyclooxygenase-1 (COX-1)): 0.7 % inhibition | IC50 [1]: 160 nM

COC(=O)NCc1ccc(-c2cc(C(=O)NC(C)(C)C)nn2-c2cccnc2)nc1 [Example 139, Methyl {6-[5-(N-tert-butylcarbamoyl)-2-(3-pyridyl)-2H-pyrazol-3-yl]-3-pyridylmethyl}carbamate]
Inhibitory effect against COX-1 at 50 μm (% inhibition) (Cyclooxygenase-1 (COX-1)): −25.8 % inhibition | IC50 [1]: 71 nM

Cc1ccc(-c2cc(C(=O)NC(C)(C)CO)nn2-c2cccnc2)nc1 [Example 152, N-(2-Hydroxy-1,1-dimethylethyl)-5-(5-methyl-2-pyridyl)-1-(3-pyridyl)-1H-pyrazole-3-carboxamide]
Inhibitory effect against COX-1 at 50 μm (% inhibition) (Cyclooxygenase-1 (COX-1)): −8.7 % inhibition | IC50 [1]: 110 nM
